From patent US7704995B2 (Exelixis, Inc., priority 2003, dated 2010)

biological target: T1, Chk1 (Homo sapiens, UniProt O14757); assay: Chk1 kinase assay: incorporation of γ-33P ATP into immobilized myelin basic protein; type: biochemical; conditions: Table 11, Chk1 only; class symbols A-D; read-out: Chk1 IC50
T1 construct: purchased Upstate Biotechnology
T1 sequence (O14757 1-476): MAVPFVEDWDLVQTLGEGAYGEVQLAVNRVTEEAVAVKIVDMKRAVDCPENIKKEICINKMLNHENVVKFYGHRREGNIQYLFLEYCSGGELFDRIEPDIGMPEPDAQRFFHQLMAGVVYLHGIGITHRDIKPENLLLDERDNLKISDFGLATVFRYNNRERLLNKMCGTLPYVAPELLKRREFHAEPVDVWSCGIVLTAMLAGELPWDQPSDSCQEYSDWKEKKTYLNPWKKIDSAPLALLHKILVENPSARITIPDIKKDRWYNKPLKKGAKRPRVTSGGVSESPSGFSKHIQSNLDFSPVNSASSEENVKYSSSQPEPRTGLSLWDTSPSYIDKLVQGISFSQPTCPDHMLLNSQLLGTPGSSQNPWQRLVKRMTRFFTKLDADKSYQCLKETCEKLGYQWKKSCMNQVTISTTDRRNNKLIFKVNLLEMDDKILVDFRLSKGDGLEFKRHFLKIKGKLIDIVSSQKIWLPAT
Procedure, shortened: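 Plates coated with MBP, then kinase reactions in Hepes pH 7.6 buffer with 10 mM MgCl2 and 1% DMSO were started by adding unlabeled plus γ-33P ATP (10 μM for Chk1 at 10 nM enzyme; 30 μM for Chk2 at 20 nM enzyme). After 1 h at room temperature, plates were washed and counted.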

Row | IC50 | Structure (SMILES)
1 | < 0.05 µM | Nc1ncc(-c2cccc(CNC(=O)c3ccc(F)cc3)c2)nc1C(=O)N[C@H]1CCCNC1 [Example 882, 3-amino-6-[3-({[(4-fluorophenyl)carbonyl]amino}methyl)phenyl]-N-[(3S)-piperidin-3-yl]pyrazine-2-carboxamide]
2 | < 0.05 µM | Nc1ncc(-c2cccc(C(=O)NCc3ccc(F)cc3F)c2)nc1-c1nc([C@H]2CCCNC2)n[nH]1 [Example 865, 3-(5-amino-6-{3-[(3S)-piperidin-3-yl]-1H-1,2,4-triazol-5-yl}pyrazin-2-yl)-N-[(2,4-difluorophenyl)methyl]benzamide]
3 | < 0.05 µM | Nc1ncc(-c2cccc(C(=O)NCc3cccc(Cl)c3)c2)nc1-c1nnc([C@H]2CCCNC2)[nH]1 [Example 837, 3-(5-amino-6-{5-[(3S)-piperidin-3-yl]-4H-1,2,4-triazol-3-yl}pyrazin-2-yl)-N-[(3-chlorophenyl)methyl]benzamide]
4 | 0.05 to 1 µM | Nc1ncc(-c2cccc(C(=O)NC3CCCC3)c2)nc1C(=O)N[C@H]1CCCNC1 [Example 929, 3-amino-6-{3-[(cyclopentylamino)carbonyl]phenyl}-N-[(3S)-piperidin-3-yl]pyrazine-2-carboxamide]
5 | < 0.05 µM | Nc1ncc(-c2cccc(NC(=O)Cc3ccc(F)cc3)c2)nc1C(=O)N[C@H]1CCCNC1 [Example 983, 3-amino-6-(3-{[(4-fluorophenyl)acetyl]amino}phenyl)-N-[(3S)-piperidin-3-yl]pyrazine-2-carboxamide]
6 | < 0.05 µM | Nc1ncc(-c2cccc(NC(=O)c3ccc(Br)cc3F)c2)nc1C(=O)N[C@H]1CCCNC1 [Example 909, 3-amino-6-(3-{[(4-bromo-2-fluorophenyl)carbonyl]amino}phenyl)-N-[(3S)-piperidin-3-yl]pyrazine-2-carboxamide]
7 | < 0.05 µM | Nc1ncc(-c2cccc(C(=O)NCc3ccc(Cl)cc3Cl)c2)nc1C(=O)N[C@H]1CCNC1 [Example 825, 3-amino-6-[3-({[(2,4-dichlorophenyl)methyl]amino}carbonyl)phenyl]-N-[(3S)-pyrrolidin-3-yl]pyrazine-2-carboxamide]

Row | Structure (SMILES) | IC50
8 | Nc1ncc(-c2cccc(CN[C@H]3CCc4ccccc43)c2)nc1C(=O)NC1CN2CCC1CC2 (stereo partly drawn) [Example 819, 3-amino-N-1-azabicyclo[2.2.2]oct-3-yl-6-(3-{[(1S)-2,3-dihydro-1H-inden-1-ylamino]methyl}phenyl)pyrazine-2-carboxamide] | 0.05 to 1 µM

same assay, conditions: Table 11; Chk1 only; read-out: Chk1 IC50

Row | Structure (SMILES) | IC50
9 | CC(C)(C)OC(=O)N1CCC(NC(=O)c2nc(-c3cccc(C(=O)NCc4ccccc4)c3)cnc2N)CC1 [Example 562, 1,1-dimethylethyl 4-({[3-amino-6-(3-{[(phenylmethyl)amino]carbonyl}phenyl)pyrazin-2-yl]carbonyl}amino)piperidine-1-carboxylate] | ≥ 10 µM
10 | CNC(=O)c1nc(-c2cccc(CNC3CCc4c(O)cccc43)c2)cnc1N (centres unmarked) [Example 515, 3-amino-6-(3-{[(4-hydroxy-2,3-dihydro-1H-inden-1-yl)amino]methyl}phenyl)-N-methylpyrazine-2-carboxamide] | < 0.05 µM
11 | CNC(=O)c1nc(-c2cccc(CN[C@H]3C[C@H]3c3ccccc3)c2)cnc1N [Example 440, 3-amino-N-methyl-6-[3-({[(1S,2S)-2-phenylcyclopropyl]amino}methyl)phenyl]pyrazine-2-carboxamide] | 0.05 to 1 µM

Results, then the molecule that gave them:

Row | IC50 | Structure (SMILES)
12 | ≥ 10 µM | N=C(NN1CCCCC1)c1nc(-c2cccc(C(=O)NCc3ccccc3)c2)cnc1N [Example 622, 3-{5-amino-6-[imino(piperidin-1-ylamino)methyl]pyrazin-2-yl}-N-(phenylmethyl)benzamide]
13 | 0.05 to 1 µM | Nc1ncc(-c2cccc(C(=O)NCc3c(F)cccc3Cl)c2)nc1C(=O)N[C@H]1CCNC1 [Example 746, 3-amino-6-[3-({[(2-chloro-6-fluorophenyl)methyl]amino}carbonyl)phenyl]-N-[(3S)-pyrrolidin-3-yl]pyrazine-2-carboxamide]
14 | 1 to 10 µM | C/C(=N\Nc1ccccc1)c1nc(-c2cccc(C(=O)NCc3ccccc3)c2)cnc1N [Example 641, 3-{5-amino-6-[(1E)-N-phenylethanehydrazonoyl]pyrazin-2-yl}-N-(phenylmethyl)benzamide]
15 | 0.05 to 1 µM | NCCNC(=O)c1nc(-c2cccc(C(=O)NCc3ccccc3)c2)cnc1N [Example 616, 3-amino-N-(2-aminoethyl)-6-(3-{[(phenylmethyl)amino]carbonyl}phenyl)pyrazine-2-carboxamide]

same assay, conditions: read-out: Chk1 IC50

Row | IC50 | Structure (SMILES)
16 | 0.05 to 1 µM | CNC(=O)c1nc(-c2cccc(CNCc3ccc(S(C)(=O)=O)cc3)c2)cnc1N [Example 392, 3-amino-N-methyl-6-{3-[({[4-(methylsulfonyl)phenyl]methyl}amino)methyl]phenyl}pyrazine-2-carboxamide]
17 | 1 to 10 µM | CNC(=O)c1nc(-c2cccc(C#N)c2)cnc1N [Example 165, 3-amino-6-(3-cyanophenyl)-N-methylpyrazine-2-carboxamide]
18 | 0.05 to 1 µM | CNC(=O)c1nc(-c2cccc(C(=O)NCc3ccc(Oc4ccccc4)cc3)c2)cnc1N [Example 184, 3-amino-N-methyl-6-{3-[({[4-(phenyloxy)phenyl]methyl}amino)carbonyl]phenyl}pyrazine-2-carboxamide]
19 | 0.05 to 1 µM | CNC(=O)c1nc(-c2cccc(C(=O)NCCN3CCN(Cc4ccccc4)CC3)c2)cnc1N [Example 199, 3-amino-N-methyl-6-{3-[({2-[4-(phenylmethyl)piperazin-1-yl]ethyl}amino)carbonyl]phenyl}pyrazine-2-carboxamide]
20 | 1 to 10 µM | CNC(=O)c1nc(-c2cc(C)cc(C)c2)cnc1N [Example 78, 3-amino-6-(3,5-dimethylphenyl)-N-methylpyrazine-2-carboxamide]
21 | 0.05 to 1 µM | CCN(CCOc1cccc(-c2cnc(N)c(C(=O)NC)n2)c1)Cc1ccccc1 [Example 178, 3-amino-6-[3-({2-[ethyl(phenylmethyl)amino]ethyl}oxy)phenyl]-N-methylpyrazine-2-carboxamide]
22 | 1 to 10 µM | CNC(=O)c1nc(-c2cccc(-c3noc(Cc4ccccc4)n3)c2)cnc1N [Example 137, 3-amino-N-methyl-6-{3-[5-(phenylmethyl)-1,2,4-oxadiazol-3-yl]phenyl}pyrazine-2-carboxamide]
23 | 0.05 to 1 µM | CCCc1ccc(CNC(=O)c2cccc(-c3cnc(N)c(C(=O)NC)n3)c2)cc1 [Example 424, 3-amino-N-methyl-6-[3-({[(4-propylphenyl)methyl]amino}carbonyl)phenyl]pyrazine-2-carboxamide]
24 | 1 to 10 µM | CNC(=O)c1nc(-c2cccc(C(=O)N[C@@H]3CCN(C(=O)OC(C)(C)C)C3)c2)cnc1N [Example 357, 1,1-dimethylethyl (3R)-3-{[(3-{5-amino-6-[(methylamino)carbonyl]pyrazin-2-yl}phenyl)carbonyl]amino}pyrrolidine-1-carboxylate]
25 | 0.05 to 1 µM | CNC(=O)c1nc(-c2cccc(NC(=O)C(c3ccccc3)c3ccccc3)c2)cnc1N [Example 157, 3-amino-6-{3-[(diphenylacetyl)amino]phenyl}-N-methylpyrazine-2-carboxamide]
26 | 1 to 10 µM | CNC(=O)c1nc(-c2cccc(C(=O)N[C@@H]3CCNC3)c2)cnc1N [Example 358, 3-amino-N-methyl-6-(3-{[(3R)-pyrrolidin-3-ylamino]carbonyl}phenyl)pyrazine-2-carboxamide]
